Measured values published in PMC4728560 (Scientific Reports, 2016).

Tests used:
Bcl-xL [1] = target: T1, Bcl-xL (Homo sapiens, UniProt Q07817, DEL27-82); assay: Heterocomplex formation with Bcl-xL (native MS, SEC-MALS, gel filtration); assay type: binding; details: native MS: Bcl-xL(Δ27-81ΔCT), equimolar 100 μM, 30 °C, checked at 5 μM (for TCTP-R21A)
T1 construct: one containing the fragment 1-26, and the other the fragment 81-209; 6His (N, cleaved yes); made in house; host or cells: Escherichia coli BL21 (DE3) pRARE2
Protocol: When not specified, proteins tested for binding experiments were mixed at 100 μM, dialyzed against 10 mM CHES pH 9, 50 mM NaCl, 1 mM DTT or TCEP, depending on the analysis, and heated overnight at 30 °C.
For binding experiments, 100 to 200PL of protein mixture were loaded on a size exclusion chromatography (S200, GE Healthcare) column, while elution profiles were measured by UV absorption at 280 nm.
SEC-MALS experiments were performed on a multi-angle light scattering detector (miniDAWN TREOS, Wyatt Technologies) coupled in-line with SEC and an interferometric refractometer (Optilab T-rEX, Wyatt Technologies). See Supplementary Information for full details.
Prior to any mass spectrometry experiment, protein buffer was exchanged twice against a 50 mM ammonium acetate (NH4Ac) solution at pH 9.0 using microcentrifuge gel filtration columns (Zeba 0.5 ml, Thermo Scientific, Rockford, IL). Protein concentration was determined spectrophotometrically. […]
Supplementary Table 1. Measured molecular weights in denaturing conditions Sample Theoretical molecular Measured molecular Associated mass (Da) mass (Da) species […]
Gel filtration. For binding experiments, 100 to 200PL of protein mixture were loaded on a size exclusion chromatography (S200, GE Healthcare) column, while elution profiles were measured by UV absorption at 280nm. […]

Bcl-xL [2] = assay: In cellulo BRET between Luciferase-fused TCTP and YFP-fused Bcl-xL; assay type: cell-based; details: MCF-7 cells; 16 h treatment
From the text: See Supplementary Information for full details.
Twenty-four hours later, cells
Protein expression and purification

Bcl-xL [3] = target: T1, Bcl-xL; assay: Isothermal Titration Calorimetry, peptides and Bcl-xL; assay type: binding; details: ITC, 30 °C, 50 mM ammonium bicarbonate pH 9, TCTP-BH3-R21A 1.26 mM (Fig. 1B)
Protocol: In red, the conserved hydrophobic residues of the BH3 domain (named h1 (P1), h2 (P2), h3 (P3) and h4 (P4)). In green, the GD signature of BH3 domains. In blue, the conserved charged residues. […] Each experiment was carried out at 30 °C in 50 mM ammonium bicarbonate pH 9.
Titrations were done by isothermal titration calorimetry (ITC) assays using an ITC200 calorimeter from GE-Microcal. See Supplementary Information for full details. […]
hybrid-FLAG peptides, rabbit anti-FLAG (Sigma) and anti-rabbit-FITC (Abcam) were used.
Isothermal Titration Calorimetry experiments
Titrations were done by isothermal titration calorimetry (ITC) assays using an ITC200 calorimeter from GE-Microcal. Bcl-xL was used at 0.065 mM in 50mM bicarbonate ammonium […]
pH 9. […] Titrations were carried out at 30°C. Data were analyzed using Microcal Origin software provided by the ITC manufacturer (GE-Microcal).
High-throughput crystallization screening was performed using a Mosquito liquid transfer robot (TTP Labtech) and the sitting-drop vapor diffusion method. Crystals were obtained at 20°C by mixing 0.2μL of reservoir solution (100mM Pipes pH 7, 1.5M Tris-sodium citrate) with 0.2μL of […]
ammonium bicarbonate pH 9.3 and by equilibrating the mixture against 40μl of reservoir

[4] = system: Bax mediated cytochrome c release, Bcl-xL; assay: Cytochrome c release from purified mitochondria by tBid and Bax in the presence of Bcl-xL; assay type: biochemical; details: mouse liver mitochondria; 5 nM tBid, 50 nM Bax, 300 nM Bcl-xL; 15 min, 30 °C; Western blot
Protocol: (A–E) in vitro reconstitution assay on liposome permeabilization. […] The treated Bcl-xL was then added to reactions containing ANTS-DPX liposomes, 100 nM Bax and 20 nM of either cBid (A,B) or cBidmt1(C,D) at pH 7. Liposome permeabilization was quantified by fluorescence after 5h incubation at 37 °C where 100% release was defined as the fluorescence change due to lipid solubilization with 1% Triton X-100. […] Error bars, std. dev. n = 3. To compare between the TCTP treated groups and the Control group statistically, two-way ANOVA test was performed for (A–D) and one-way ANOVA test was performed for (E). […] Colored asterisks above each data point indicate the statistical significance (*p < 0.05; **p < 0.01, no asterisks if p ≥ 0.05). A complete statistical analysis is provided in Supplementary Table 2–4. […] Cyto c extra-mito: in the supernatant, analysed by Western blot. […]
to highlight the pre-incubation), pH 9, 30 C° before being added to the mitochondria at their final concentrations. […] Cytochrome c was detected in the mitochondrial fraction (Cyto c intra-mito) or in the supernatant (Cyto c extra-mito) by Western blot analysis. […]
Cytochrome c release assay. […] Mitochondrial pellets and the corresponding supernatant fractions were subjected to SDS-polyacrylamide gel electrophoresis and analyzed by Western blotting for cytochrome c.

[5] = system: thymocytes from TCTP^+/− mice; assay: Complementation (viability) of γ-irradiated TCTP+/− thymocytes; assay type: cell-based, mouse; details: γ-irradiation 2.5 Gy, overnight culture, 0 to 1000 nM
From the text: Figure 4 Molecular/functional analysis of the h1 (P1) subregion of BH3-TCTP. […]
Peptides used for in vitro assays:
WT-TCTP (11-31): […]
R21A-TCTP (11-31): […]
Hybrid Bax/TCTP: […]
Peptides used for in vivo assays:
WT-TCTP (1-31) : […]
Hybrid Bax-TCTP: […]
TCTP-FLAG peptides used for in vivo assays:
WT-TCTP (1-31)-FLAG : […] DYKDDDDK-OH
TCTP-Bax-TCTP-FLAG: […]-OH […]
subdomain in the BH3 motif is underlined. Peptides were purchased from Smartox […]
Complementation and transduction experiments
In order to complement the haploinsufficient TCTP+/- mice with exogenous TCTP, we took advantage of the fact that the first N-terminal fragment of TCTP functions as a Protein Transduction Domain (PTD), enabling TCTP to penetrate into the cell by a mechanism hitherto […]
not well understood23,27-29. […]
of γ irradiation) and cultured, at a concentration of 10^7 cells/ml, overnight in the presence of […]
20) at concentrations ranging from 0-1000nM. For the transduction assays using WT-TCTP- […]
concentrations were 10 microM, 50 microM and 100 microM.
γ-irradiated thymocytes were fixed by adding 500ul of PFA 4% and incubated for 20 min at room temperature. The cells were washed twice with PBS and permeabilized for 10 min with 0.2% triton X-100 in PBS at room temp. The cells were washed twice with PBS. Proteins were blocked in Blocking buffer (1% BSA 0.5% Tween in PBS) 1h at room temperature. The primary antibody was added with blocking buffer and placed in a rotating wheel overnight in a cold room.
Cells were then washed 3 times with PBS and incubated with secondary antibody with blocking buffer 1h at room temperature. The cells were washed 3 times with PBS and suspended in 200 µL PBS and used for Flow Cytometry or further used for immunohistochemistry: 5 µl of each sample were mixed with 5 µl of ProLong® Gold antifade reagent (Life Technologies) and visualized, using the IX73 inverted fluorescence microscope and the cellSens™ Dimension […]
FACS analysis (BD Accuri™ C6 Cytometer (BD Biosciences) of incorporation of exogenous

T1 sequence (Q07817 with tags, fused parts or gaps DEL27-82): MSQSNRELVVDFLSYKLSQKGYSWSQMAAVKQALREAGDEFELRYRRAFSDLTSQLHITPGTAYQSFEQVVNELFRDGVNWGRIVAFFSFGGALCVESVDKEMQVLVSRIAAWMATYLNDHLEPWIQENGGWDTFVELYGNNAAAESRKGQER

With CN(C)CC[C@H](CSc1ccccc1)Nc1ccc(S(=O)(=O)NC(=O)c2ccc(N3CCN(Cc4ccccc4-c4ccc(Cl)cc4)CC3)cc2)cc1[N+](=O)[O-] [ABT-737, reference compound] the “complex formation with Bcl-xL” value (Bcl-xL [1]) was “abrogated formation of the TCTP/Bcl-xL complexes” and the “inhibition of BRET signals between TCTP and Bcl-xL” value (Bcl-xL [2]) was “significantly inhibited”.

For “DEMFSDIYKIAEIADGLCLEV [TCTP11–31-R21A, R21A mutant of TCTP11–31 peptide]”, the “binding to Bcl-xL” value (Bcl-xL [3]) was “does not bind to Bcl-xL”.

In the case of “MIIYRDLISHDEMFSDIYKI [TCTP1–20, truncated TCTP peptide]”, the “potentiation of Bcl-xL (cytochrome c release)” value [4] is reported as “do not potentiate Bcl-xL”.

“MIIYRDLISHDEMFSDIYKIREIADGLCLEV [TCTP1–31]” was tested, and the “rescue of TCTP+/− haploinsufficient phenotype / anti-apoptotic function” value [5] was “rescue completely the TCTP^+/− haploinsufficient phenotype”.

With “MIIYRDLISHDEMKKLSECIREIADGLCLEV [hybrid mutant]” the “rescue of TCTP+/− haploinsufficient phenotype / anti-apoptotic function” value [5] was “not able anymore to rescue the haploinsufficient phenotype” and the “rescue of TCTP+/− haploinsufficient phenotype / anti-apoptotic function” value ([5]; listed as hybrid Bax(h1)-TCTP) was “completely abrogated its anti-apoptotic function”.
